Source: ChEMBL document CHEMBL1139716, “Naphtho[2,3-b][1,4]-thiazine-5,10-diones and 3-substituted-1,4-dioxo-1,4-dihydronaphthalen-2-yl-thioalkanoate derivatives: synthesis and biological evaluation as potential antibacterial and antifungal agents” (Bioorg Med Chem Lett, 2006)
≈ marks a conversion by molar mass, not a printed value.

Key:
Cryptococcus neoformans = assay: Antifungal activity against Cryptococcus neoformans by broth microdilution technique; assay type: functional, organism-based
Sporothrix schenckii = assay: Antifungal activity against Sporothrix schenckii by broth microdilution technique; assay type: functional, organism-based
Pseudomonas aeruginosa = assay: Antibacterial activity against Pseudomonas aeruginosa by broth microdilution technique; assay type: functional, organism-based
Trichophyton benhamiae = assay: Antifungal activity against Trichophyton mentagrophytes by broth microdilution technique; assay type: functional, organism-based, Arthroderma benhamiae
Candida parapsilosis = assay: Antifungal activity against Candida parapsilosis ATCC 22019 by broth microdilution technique; assay type: functional, organism-based; settings: Lodderomyces parapsilosis
Staphylococcus aureus = assay: Antibacterial activity against Staphylococcus aureus by broth microdilution technique; assay type: functional, organism-based
Candida albicans = assay: Antifungal activity against Candida albicans by broth microdilution technique; assay type: functional, organism-based
Escherichia coli = assay: Antibacterial activity against Escherichia coli by broth microdilution technique; assay type: functional, organism-based
Enterococcus faecalis = assay: Antibacterial activity against Streptococcus faecalis by broth microdilution technique; assay type: functional, organism-based
Klebsiella pneumoniae = assay: Antibacterial activity against Klebsiella pneumoniae by broth microdilution technique; assay type: functional, organism-based
Aspergillus fumigatus = assay: Antifungal activity against Aspergillus fumigatus by broth microdilution technique; assay type: functional, organism-based
[1] = Pseudomonas aeruginosa, read-out: IC50
[2] = Staphylococcus aureus, read-out: IC50
[3] = Escherichia coli, read-out: IC50
[4] = Enterococcus faecalis, read-out: IC50
[5] = Klebsiella pneumoniae, read-out: IC50

Row | IC50 (Cryptococcus neoformans) [µg/mL] | MIC (Cryptococcus neoformans) [µg/mL] | IC50 (Sporothrix schenckii) [µg/mL] | MIC (Sporothrix schenckii) [µg/mL] | MIC (Pseudomonas aeruginosa; Pseudomonas aeruginosa) [µg/mL] | IC50 (Pseudomonas aeruginosa; [1]) [µg/mL] | IC50 (Trichophyton benhamiae) [µg/mL] | MIC (Trichophyton benhamiae) [µg/mL] | IC50 (Candida parapsilosis) [µg/mL] | MIC (Candida parapsilosis) [µg/mL] | MIC (Staphylococcus aureus; Staphylococcus aureus) [µg/mL] | IC50 (Staphylococcus aureus; [2]) [µg/mL] | IC50 (Candida albicans) [µg/mL] | MIC (Candida albicans) [µg/mL] | MIC (Escherichia coli; Escherichia coli) [µg/mL] | IC50 (Escherichia coli; [3]) [µg/mL] | MIC (Enterococcus faecalis; Enterococcus faecalis) [µg/mL] | IC50 (Enterococcus faecalis; [4]) [µg/mL] | IC50 (Aspergillus fumigatus) [µg/mL] | MIC (Aspergillus fumigatus) [µg/mL] | Molecule | other results
1 | 11.3 (≈ 33.8 µM) | 12.5 (≈ 37.5 µM) | 38.6 (≈ 116 µM) | 50 (≈ 150 µM) | 50 (≈ 150 µM) | 35.9 (≈ 108 µM) | 9.8 (≈ 29.4 µM) | 12.5 (≈ 37.5 µM) | 23.2 (≈ 69.7 µM) | 25 (≈ 75 µM) | 12.5 (≈ 37.5 µM) | 18.5 (≈ 55.4 µM) | 44.3 (≈ 133 µM) | 50 (≈ 150 µM) | 25 (≈ 75 µM) | 25 (≈ 74.9 µM) | 25 (≈ 75 µM) | 20.6 (≈ 61.9 µM) | 44.9 (≈ 135 µM) | 50 (≈ 150 µM) | CCOC(=O)CSC1=C(NC(C)C)C(=O)c2ccccc2C1=O | MIC (Klebsiella pneumoniae; Klebsiella pneumoniae): 50 µg/mL (≈ 150 µM); IC50 (Klebsiella pneumoniae; [5]): 46.9 µg/mL (≈ 141 µM)
2 | 10.9 (≈ 35.2 µM) | 12.5 (≈ 40.2 µM) | 18.7 (≈ 60.3 µM) | 25 (≈ 80.4 µM) | 50 (≈ 161 µM) | 44.4 (≈ 143 µM) | > 50 | > 50 | > 50 | > 50 | 12.5 (≈ 40.2 µM) | 6.98 (≈ 22.5 µM) | > 50 | > 50 | 12.5 (≈ 40.2 µM) | 8.56 (≈ 27.5 µM) | 12.5 (≈ 40.2 µM) | 9.24 (≈ 29.7 µM) | > 50 | > 50 | CCOC(=O)CSC1=C(Cl)C(=O)c2ccccc2C1=O | MIC (Klebsiella pneumoniae; Klebsiella pneumoniae): 50 µg/mL (≈ 161 µM); IC50 (Klebsiella pneumoniae; [5]): 33.2 µg/mL (≈ 107 µM)
3 | > 50 | > 50 | > 50 | > 50 | 50 (≈ 106 µM) | 46.2 (≈ 98.5 µM) | 14 (≈ 29.8 µM) | 25 (≈ 53.2 µM) | > 50 | > 50 | 12.5 (≈ 26.6 µM) | 9.52 (≈ 20.3 µM) | > 50 | > 50 | 50 (≈ 106 µM) | 44.3 (≈ 94.3 µM) | > 50 | > 50 | > 50 | > 50 | CCOC(=O)C(C)SC1=C(NCCc2ccc(OC)c(OC)c2)C(=O)c2ccccc2C1=O (centres undefined) | MIC (Klebsiella pneumoniae; Klebsiella pneumoniae): 50 µg/mL (≈ 106 µM); IC50 (Klebsiella pneumoniae; [5]): 42.5 µg/mL (≈ 90.6 µM)
4 | 6.92 (≈ 19.8 µM) | 12.5 (≈ 35.8 µM) | 21.9 (≈ 62.8 µM) | 25 (≈ 71.5 µM) | 25 (≈ 71.5 µM) | 24.5 (≈ 70.2 µM) | > 50 | > 50 | 22.5 (≈ 64.5 µM) | 25 (≈ 71.5 µM) | 6.25 (≈ 17.9 µM) | 4.82 (≈ 13.8 µM) | 23.3 (≈ 66.6 µM) | 25 (≈ 71.5 µM) | 3.12 (≈ 8.93 µM) | 2.24 (≈ 6.41 µM) | 6.25 (≈ 17.9 µM) | 5.42 (≈ 15.5 µM) | 23.9 (≈ 68.5 µM) | 25 (≈ 71.5 µM) | CCOC(=O)C(C)SC1=C(NCCO)C(=O)c2ccccc2C1=O (centres undefined) | MIC (Klebsiella pneumoniae; Klebsiella pneumoniae): 12.5 µg/mL (≈ 35.8 µM); IC50 (Klebsiella pneumoniae; [5]): 11.6 µg/mL (≈ 33.1 µM)
5 | 11.5 (≈ 35.3 µM) | 12.5 (≈ 38.5 µM) | 22.7 (≈ 69.8 µM) | 25 (≈ 77 µM) | 50 (≈ 154 µM) | 48.3 (≈ 149 µM) | > 50 | > 50 | > 50 | > 50 | 12.5 (≈ 38.5 µM) | 7.95 (≈ 24.5 µM) | > 50 | > 50 | 12.5 (≈ 38.5 µM) | 6.34 (≈ 19.5 µM) | 12.5 (≈ 38.5 µM) | 9.52 (≈ 29.3 µM) | > 50 | > 50 | CCOC(=O)C(C)SC1=C(Cl)C(=O)c2ccccc2C1=O (centres undefined) | MIC (Klebsiella pneumoniae; Klebsiella pneumoniae): 50 µg/mL (≈ 154 µM); IC50 (Klebsiella pneumoniae; [5]): 28.3 µg/mL (≈ 87.3 µM)
6 |  |  |  |  |  |  |  |  |  |  |  |  |  |  |  |  |  |  |  |  | GENTAMICIN | IC50 (Pseudomonas aeruginosa): 24.64 µg/mL; IC50 (Staphylococcus aureus): 4.46 µg/mL; IC50 (Escherichia coli): 0.11 µg/mL; IC50 (Enterococcus faecalis): 0.62 µg/mL; IC50 (Klebsiella pneumoniae): 0.34 µg/mL
7 | > 50 | > 50 | 46.7 (≈ 127 µM) | 50 (≈ 136 µM) | 25 (≈ 68 µM) | 22.8 (≈ 62.1 µM) | 23 (≈ 62.6 µM) | 25 (≈ 68 µM) | > 50 | > 50 | 12.5 (≈ 34 µM) | 11.8 (≈ 32.2 µM) | > 50 | > 50 | 6.25 (≈ 17 µM) | 4.32 (≈ 11.8 µM) | 25 (≈ 68 µM) | 18.6 (≈ 50.7 µM) | > 50 | > 50 | CCOC(=O)CSC1=C(Nc2ccccc2)C(=O)c2ccccc2C1=O | MIC (Klebsiella pneumoniae; Klebsiella pneumoniae): 12.5 µg/mL (≈ 34 µM); IC50 (Klebsiella pneumoniae; [5]): 9.24 µg/mL (≈ 25.1 µM)

Row | Molecule | IC50 (Cryptococcus neoformans) [µg/mL] | MIC (Cryptococcus neoformans) [µg/mL] | IC50 (Sporothrix schenckii) [µg/mL] | MIC (Sporothrix schenckii) [µg/mL] | MIC (Pseudomonas aeruginosa; Pseudomonas aeruginosa) [µg/mL] | IC50 (Pseudomonas aeruginosa; [1]) [µg/mL] | IC50 (Trichophyton benhamiae) [µg/mL] | MIC (Trichophyton benhamiae) [µg/mL] | IC50 (Candida parapsilosis) [µg/mL] | MIC (Candida parapsilosis) [µg/mL] | MIC (Staphylococcus aureus; Staphylococcus aureus) [µg/mL] | IC50 (Staphylococcus aureus; [2]) [µg/mL] | IC50 (Candida albicans) [µg/mL] | MIC (Candida albicans) [µg/mL] | MIC (Escherichia coli; Escherichia coli) [µg/mL] | IC50 (Escherichia coli; [3]) [µg/mL] | MIC (Enterococcus faecalis; Enterococcus faecalis) [µg/mL] | IC50 (Enterococcus faecalis; [4]) [µg/mL] | IC50 (Aspergillus fumigatus) [µg/mL] | MIC (Aspergillus fumigatus) [µg/mL] | other results
8 | C[C@@H]1[C@H](O)[C@@H](C)/C=C/C=C/C=C/C=C/C=C/C=C/C=C/[C@H](O[C@@H]2O[C@H](C)[C@@H](O)[C@H](N)[C@@H]2O)C[C@@H]2O[C@](O)(C[C@@H](O)C[C@@H](O)[C@H](O)CC[C@@H](O)C[C@@H](O)CC(=O)O[C@H]1C)C[C@H](O)[C@H]2C(=O)O [AMPHOTERICIN B] | 0.04 (≈ 0.0433 µM) | 0.06 (≈ 0.0649 µM) | 0.08 (≈ 0.0866 µM) | 0.12 (≈ 0.13 µM) |  |  | 0.09 (≈ 0.0974 µM) | 0.12 (≈ 0.13 µM) | 0.11 (≈ 0.119 µM) | 0.12 (≈ 0.13 µM) |  |  | 0.09 (≈ 0.0974 µM) | 0.12 (≈ 0.13 µM) |  |  |  |  | 0.38 (≈ 0.411 µM) | 0.5 (≈ 0.541 µM) | 
